# Results: ChEMBL document CHEMBL1132762, “RGD mimetics containing a central hydantoin scaffold: alpkha(v)beta3 vs alpha(IIb)beta3 selectivity requirements” (Bioorg Med Chem Lett, 2000)
# pIC50: −log10 of the molar value.
# Assays:
# [1] = target: Integrin alpha-IIb/beta-3 (Homo sapiens, UniProt P05106+P08514); experiment: Inhibition of fibrinogen binding to integrin alphaIIb-beta3; format: protein-complex assay
# [2] = target: Integrin alpha-V/beta-3 (Homo sapiens, UniProt P05106+P06756); experiment: Inhibition of Kistrin binding to integrin alphaV-beta3; format: protein-complex assay
# Chain of Integrin alpha-V/beta-3 (P05106 27-788 limits assumed): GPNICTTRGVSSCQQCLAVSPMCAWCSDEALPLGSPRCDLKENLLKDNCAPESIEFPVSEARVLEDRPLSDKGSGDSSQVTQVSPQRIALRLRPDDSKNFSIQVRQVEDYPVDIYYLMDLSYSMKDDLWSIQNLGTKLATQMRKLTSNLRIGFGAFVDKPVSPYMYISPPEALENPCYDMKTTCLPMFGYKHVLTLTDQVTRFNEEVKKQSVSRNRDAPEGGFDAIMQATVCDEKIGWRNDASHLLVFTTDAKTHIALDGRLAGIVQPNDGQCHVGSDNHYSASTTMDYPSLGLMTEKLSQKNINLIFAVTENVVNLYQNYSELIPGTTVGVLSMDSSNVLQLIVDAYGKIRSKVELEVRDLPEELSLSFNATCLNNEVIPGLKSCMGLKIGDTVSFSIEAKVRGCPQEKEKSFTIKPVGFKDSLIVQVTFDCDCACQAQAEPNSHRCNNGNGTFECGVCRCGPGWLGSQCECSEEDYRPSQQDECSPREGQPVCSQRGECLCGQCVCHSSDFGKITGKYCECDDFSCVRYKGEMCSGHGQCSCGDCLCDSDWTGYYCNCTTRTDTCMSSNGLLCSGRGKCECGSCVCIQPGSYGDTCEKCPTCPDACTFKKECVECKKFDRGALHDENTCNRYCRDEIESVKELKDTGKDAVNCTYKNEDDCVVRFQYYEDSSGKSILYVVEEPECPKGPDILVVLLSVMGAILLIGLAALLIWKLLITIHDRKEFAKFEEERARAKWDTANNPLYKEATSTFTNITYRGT
# Chain of Integrin alpha-V/beta-3 (P06756 31-889 limits assumed): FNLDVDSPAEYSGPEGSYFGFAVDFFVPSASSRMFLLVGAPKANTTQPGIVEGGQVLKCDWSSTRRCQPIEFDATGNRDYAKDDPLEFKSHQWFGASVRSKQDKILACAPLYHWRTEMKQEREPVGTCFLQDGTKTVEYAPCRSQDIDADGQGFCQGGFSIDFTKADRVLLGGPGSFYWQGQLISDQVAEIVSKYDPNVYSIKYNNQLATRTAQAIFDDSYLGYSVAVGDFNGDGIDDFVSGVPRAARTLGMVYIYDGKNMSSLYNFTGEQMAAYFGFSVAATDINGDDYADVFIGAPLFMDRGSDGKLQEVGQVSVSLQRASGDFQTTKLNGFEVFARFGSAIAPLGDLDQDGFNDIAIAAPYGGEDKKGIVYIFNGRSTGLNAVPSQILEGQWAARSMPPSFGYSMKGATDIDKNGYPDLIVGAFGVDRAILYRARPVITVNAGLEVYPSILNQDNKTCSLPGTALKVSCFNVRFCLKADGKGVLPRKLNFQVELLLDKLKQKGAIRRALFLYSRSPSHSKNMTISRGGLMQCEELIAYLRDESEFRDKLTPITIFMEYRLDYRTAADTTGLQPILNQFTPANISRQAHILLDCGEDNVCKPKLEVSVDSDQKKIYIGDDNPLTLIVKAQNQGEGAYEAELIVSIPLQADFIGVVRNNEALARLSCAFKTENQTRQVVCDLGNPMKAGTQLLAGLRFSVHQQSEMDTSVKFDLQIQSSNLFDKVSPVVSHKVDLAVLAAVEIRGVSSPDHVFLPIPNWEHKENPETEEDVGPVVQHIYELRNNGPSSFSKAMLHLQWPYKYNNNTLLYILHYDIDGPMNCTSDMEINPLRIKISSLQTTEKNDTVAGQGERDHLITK
# Chain of Integrin alpha-V/beta-3 (P06756 891-1048 limits assumed): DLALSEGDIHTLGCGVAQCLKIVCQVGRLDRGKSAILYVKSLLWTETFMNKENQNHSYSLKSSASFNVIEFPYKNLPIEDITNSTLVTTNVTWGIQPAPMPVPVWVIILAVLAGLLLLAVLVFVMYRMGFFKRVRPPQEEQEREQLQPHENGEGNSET
# Chain of Integrin alpha-IIb/beta-3 (P05106 27-788 limits assumed): as the sequence (P05106 27-788 limits assumed) above
# Chain of Integrin alpha-IIb/beta-3 (P08514 32-887 limits assumed): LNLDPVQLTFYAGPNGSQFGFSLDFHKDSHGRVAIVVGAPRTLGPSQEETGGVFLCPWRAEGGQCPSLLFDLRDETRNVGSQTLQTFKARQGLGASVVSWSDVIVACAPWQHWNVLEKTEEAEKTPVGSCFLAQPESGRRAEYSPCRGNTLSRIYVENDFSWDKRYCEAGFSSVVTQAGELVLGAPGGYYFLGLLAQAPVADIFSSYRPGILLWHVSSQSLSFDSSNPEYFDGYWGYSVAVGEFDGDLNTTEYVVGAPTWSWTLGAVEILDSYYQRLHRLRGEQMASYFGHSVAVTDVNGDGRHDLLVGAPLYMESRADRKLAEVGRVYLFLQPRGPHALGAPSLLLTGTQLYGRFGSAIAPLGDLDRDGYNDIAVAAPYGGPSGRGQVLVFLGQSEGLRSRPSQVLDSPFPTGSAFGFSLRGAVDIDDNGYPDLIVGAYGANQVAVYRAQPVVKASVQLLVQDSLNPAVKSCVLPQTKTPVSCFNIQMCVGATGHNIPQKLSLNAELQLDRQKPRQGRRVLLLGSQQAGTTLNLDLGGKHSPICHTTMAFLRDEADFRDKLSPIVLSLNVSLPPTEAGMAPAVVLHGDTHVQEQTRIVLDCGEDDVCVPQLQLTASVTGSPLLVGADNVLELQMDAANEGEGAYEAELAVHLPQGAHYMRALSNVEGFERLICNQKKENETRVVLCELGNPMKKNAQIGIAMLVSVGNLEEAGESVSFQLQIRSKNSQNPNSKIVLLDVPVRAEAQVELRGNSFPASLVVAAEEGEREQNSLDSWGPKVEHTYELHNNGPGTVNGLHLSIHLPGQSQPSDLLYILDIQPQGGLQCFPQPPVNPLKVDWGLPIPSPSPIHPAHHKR
# Chain of Integrin alpha-IIb/beta-3 (P08514 891-1039 limits assumed): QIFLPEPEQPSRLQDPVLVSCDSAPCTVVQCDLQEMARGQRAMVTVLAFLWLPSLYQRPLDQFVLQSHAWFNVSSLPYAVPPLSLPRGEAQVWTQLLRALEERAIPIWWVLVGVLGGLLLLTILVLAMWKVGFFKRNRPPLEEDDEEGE
smiles,measurement,setting,value
N=C(N)NCCC[C@@H]1NC(=O)N(CC(=O)NCC(NC(=O)c2ccc3ccccc3c2)C(=O)O)C1=O (some centres not stated),pIC50,[1],6.70
same,pIC50,[2],6.70
O=C(CN1C(=O)N[C@@H](CCCNC2=NCCN2)C1=O)NCC(NC(=O)OCc1ccccc1)C(=O)O (some centres not stated),pIC50,[1],< 5.00
same,pIC50,[2],7.70
N=C(N)NCCCC[C@@H]1NC(=O)N(CC(=O)NCC(NC(=O)OCc2ccccc2)C(=O)O)C1=O (some centres not stated),pIC50,[1],6.07
same,pIC50,[2],6.70
N=C(N)NCCC[C@@H]1NC(=O)N(CC(=O)NCC(NC(=O)CCc2ccccc2)C(=O)O)C1=O (some centres not stated),pIC50,[1],6.26
same,pIC50,[2],6.46
O=C(C[C@@H]1NC(=O)N(CC(=O)NCC(NC(=O)OCc2ccccc2)C(=O)O)C1=O)NCc1nc2ccccc2[nH]1 (some centres not stated),pIC50,[2],4.82
O=C(CN1C(=O)N[C@@H](CC(=O)NNC2=NCCN2)C1=O)NCC(NC(=O)OCc1ccccc1)C(=O)O (some centres not stated),pIC50,[1],< 5.00
same,pIC50,[2],6.24
O=C(CN1C(=O)N[C@@H](CCCNc2ncccn2)C1=O)NCC(NC(=O)OCc1ccccc1)C(=O)O (some centres not stated),pIC50,[1],< 5.00
same,pIC50,[2],5.78
N=C(N)NCCC[C@@H]1NC(=O)N(CC(=O)NCC(NC(=O)OCc2ccccc2)C(=O)O)C1=O (some centres not stated),pIC50,[1],5.62
same,pIC50,[2],7.10
N=C(N)NCC[C@@H]1NC(=O)N(CC(=O)NCC(NC(=O)OCc2ccccc2)C(=O)O)C1=O (some centres not stated),pIC50,[1],5.00
same,pIC50,[2],5.30
CCCCS(=O)(=O)NC(CNC(=O)CN1C(=O)N[C@@H](CCCN=C(N)N)C1=O)C(=O)O (some centres not stated),pIC50,[1],6.46
same,pIC50,[2],6.12
N=C(N)NC[C@@H]1NC(=O)N(CC(=O)NCC(NC(=O)OCc2ccccc2)C(=O)O)C1=O (some centres not stated),pIC50,[1],5.00
same,pIC50,[2],4.82
N=C(N)NCCC[C@@H]1NC(=O)N(CC(=O)NCC(/N=C(\S)NCc2ccccc2)C(=O)O)C1=O (some centres not stated),pIC50,[1],5.00
same,pIC50,[2],5.52
N=C(N)NCCC[C@@H]1NC(=O)N(CC(=O)NCC(NC(=O)NCc2ccccc2)C(=O)O)C1=O (some centres not stated),pIC50,[1],6.74
same,pIC50,[2],6.24
O=C(CN1C(=O)N[C@@H](CCCNc2nc3ccccc3[nH]2)C1=O)NCC(NC(=O)OCc1ccccc1)C(=O)O (some centres not stated),pIC50,[1],< 5.00
same,pIC50,[2],7.40
